Earlier results as cited in US11857510B2, “Methods and compositions for treating congenital diarrhea disorder” (NAPO PHARMACEUTICALS, INC., priority 2017, dated 2024).

Settings: human, in vivo

**Q.** Which “absorption from the GI tract” value does the source give for Crofelemer here?
**A.** little or no absorption

**Q.** And the systemic bioavailability?
**A.** virtually no systemic bioavailability

**Q.** And the tolerability?
**A.** well tolerated
